Data from US4228285A, “14-Hydroxy-6-oxamorphinans and 14-hydroxy-6-oxaisomorphinans” (priority 1979, dated 1980).
Like-named read-outs stand apart in the source and are kept apart here.

How the values were obtained:
[1] = morphine antagonist rat tail flick test; format: in vivo; settings: subcutaneous; for ED50: sc
Source text: (§1) Table 2 compares the oxymorphone and morphine antagonist activity of two of the preferred embodiments of this invention with the antagonist activity of butorphanol, in the standard oxymorphone-induced Straub tail test and the morphine antagonist rat tail flick test. In the Straub tail test, subcutaneously, BL-5951 and BL-5961 were about 5 times and about 1.6 times, respectively, as potent as butorphanol. Orally, they were about 55 times and about 1.7 times, respectively, as potent as butorphanol.

[2] = oxymorphone-induced Straub tail test (oxymorphone antagonist activity); format: in vivo; settings: for antagonist potency relative to butorphanol, Straub tail test: vs butorphanol
Source text: as §1

[3] = format: in vivo; settings: subcutaneous
[4] = format: in vivo; settings: for agonist potency relative to butorphanol / agonist potency relative to morphine sulfate: mice; for agonist potency relative to butorphanol: vs butorphanol; for agonist potency relative to morphine sulfate: vs morphine sulfate
[5] = oral, read-out: Antagonist Activity ED50, Oxymorphone-induced Straub Tail, PO
[6] = sc, subcutaneous, read-out: Antagonist Activity ED50, Oxymorphone-induced Straub Tail, SC

In the case of `Oc1ccc2c(c1)[C@]13CCN(CC4CC4)[C@H](C2)[C@]1(O)CCOC3` (racemic) [BL-5951, 17-Cyclopropylmethyl-3,14β-dihydroxy-6-oxamorphinan], the ED50 [1] is reported as roughly 0.09 mg/kg, the “antagonist potency relative to butorphanol, rat tail flick test” value ([1]; vs butorphanol) is reported as “about 4.8 times” and the “antagonist potency relative to butorphanol, Straub tail test” value ([2]; oral) is reported as “about 55 times”. The ED50 [2, 5] was roughly 1 mg/kg, the ED50 [2, 6] was roughly 0.2 mg/kg and the “antagonist potency relative to butorphanol, Straub tail test” value ([2]; subcutaneous) was “about 5 times”.

For `Oc1ccc2c(c1)[C@]13CCN(CC4CCC4)[C@H](C2)[C@]1(O)CCOC3` (racemic) [BL-5961, 17-Cyclobutylmethyl-3,14β-dihydroxy-6-oxamorphinan], the ED50 [1] was roughly 0.4 mg/kg, the “antagonist potency relative to butorphanol, rat tail flick test (in words)” value ([1]; vs butorphanol) was “about equipotent” and the “agonist potency relative to butorphanol” value ([3]; rats, vs butorphanol) was “about equipotent”. The “agonist potency relative to morphine sulfate” value ([3]; rats, vs morphine sulfate) was “about 4 times”, the “Agonist Activity ED50, Rats (SC)” value [3] was 0.041 mg/kg and the “agonist potency relative to butorphanol” value ([4]; oral) was “about 2.5 times”. The “agonist potency relative to morphine sulfate” value ([4]; oral) was “about 1.4 times”, the “agonist potency relative to butorphanol” value ([4]; subcutaneous) was “about 1.4 times” and the “agonist potency relative to morphine sulfate” value ([4]; subcutaneous) was “about 7 times”. The “Agonist Activity ED50, Mice (PO)” value ([4]; oral) was 2.2 mg/kg, the “Agonist Activity ED50, Mice (SC)” value ([4]; subcutaneous) was 0.037 mg/kg and the “antagonist potency relative to butorphanol, Straub tail test” value ([2]; oral) was “about 1.7 times”. For the same compound, the ED50 [2, 5] was roughly 32 mg/kg, the ED50 [2, 6] was 0.61 mg/kg and the “antagonist potency relative to butorphanol, Straub tail test” value ([2]; subcutaneous) was “about 1.6 times”.

For `CN1CC[C@]23COC(C)(C)C[C@@]2(O)[C@H]1Cc1ccc(O)cc13` (racemic) [BL-6021, 3,14β-Dihydroxy-7,7,17-trimethyl-6-oxamorphinan], the “agonist potency relative to butorphanol” value ([4]; subcutaneous) was “about 1.4 times”, the “agonist potency relative to morphine sulfate” value ([4]; subcutaneous) was “about 7 times” and the “Agonist Activity ED50, Mice (SC)” value ([4]; subcutaneous) was 0.037 mg/kg.

With `Oc1ccc2c(c1)[C@@]13CCCC[C@@]1(O)[C@@H](C2)N(CC1CCC1)CC3` [butorphanol, reference compound] the ED50 [1] was 0.43 mg/kg, the “Agonist Activity ED50, Rats (SC)” value [3] was 0.040 mg/kg and the “Agonist Activity ED50, Mice (PO)” value ([4]; oral) was 5.6 mg/kg. For the same compound, the “Agonist Activity ED50, Mice (SC)” value ([4]; subcutaneous) was 0.051 mg/kg, the ED50 [2, 5] was 55 mg/kg and the ED50 [2, 6] was 0.98 mg/kg.
